Test results from patent US11726101B2, “Adrenomedullin assays and methods for determining mature adrenomedullin” (SPHINGOTEC GMBH, priority 2011, dated 2023).

Key:
[1] = Stability of human Adrenomedullin in human Citrate plasma at 24° C., quantified by hADM immunoassay (MR-ADM/CT-ADM); format: in vitro ADME; details: for Average ADM recovery (N = 5) / Loss of immune reactivity %/h: human Citrate plasma; for Average ADM recovery (N = 5): 10 ng ADM/ml; for Average loss of immune reactivity: average over time points, human plasma, MR-ADM/CT-ADM sandwich assay
Experimental: At selected time points, aliquots were frozen at −20° C.

[2] = using other assay methods (Hinson 2000); cited from earlier work

Average ADM recovery (N = 5) ([1]; 0 h): 100
Loss of immune reactivity %/h ([1]; 2 h): 0.4 %/h
Average ADM recovery (N = 5) ([1]; 2 h): 99.2
Loss of immune reactivity %/h ([1]; 4 h): 0.8 %/h
Average ADM recovery (N = 5) ([1]; 4 h): 96.4
Loss of immune reactivity %/h ([1]; 8 h): 1.5 %/h
Average ADM recovery (N = 5) ([1]; 8 h): 88.2
Average loss of immune reactivity [1]: Average: 0.9%/h
Average loss of immune reactivity ([1]; listed as ADM): 0.9 %/h
Compound: CC[C@H](C)[C@H](NC(=O)[C@H](CCC(N)=O)NC(=O)[C@H](Cc1c[nH]cn1)NC(=O)[C@H](C)NC(=O)[C@H](CC(C)C)NC(=O)[C@H](CCCCN)NC(=O)[C@H](CCC(N)=O)NC(=O)[C@@H](NC(=O)[C@@H](NC(=O)[C@@H]1CSSC[C@H](NC(=O)CNC(=O)[C@H](Cc2ccccc2)NC(=O)[C@H](CO)NC(=O)[C@H](CCCNC(=N)N)NC(=O)[C@H](CC(C)C)NC(=O)CNC(=O)[C@H](CCC(N)=O)NC(=O)[C@H](Cc2ccccc2)NC(=O)[C@H](CC(N)=O)NC(=O)[C@H](CC(N)=O)NC(=O)[C@H](CCSC)NC(=O)[C@H](CO)NC(=O)[C@H](CCC(N)=O)NC(=O)[C@H](CCCNC(=N)N)NC(=O)[C@@H](N)Cc2ccc(O)cc2)C(=O)N[C@@H](CCCNC(=N)N)C(=O)N[C@@H](Cc2ccccc2)C(=O)NCC(=O)N[C@@H]([C@@H](C)O)C(=O)N1)[C@@H](C)O)C(C)C)C(=O)N[C@@H](Cc1ccc(O)cc1)C(=O)N[C@@H](CCC(N)=O)C(=O)N[C@@H](Cc1ccccc1)C(=O)N[C@H](C(=O)N[C@@H](CC(=O)O)C(=O)N[C@@H](CCCCN)C(=O)N[C@@H](CC(=O)O)C(=O)N[C@@H](CCCCN)C(=O)N[C@@H](CC(=O)O)C(=O)N[C@@H](CC(N)=O)C(=O)N[C@H](C(=O)N[C@@H](C)C(=O)N1CCC[C@H]1C(=O)N[C@@H](CCCNC(=N)N)C(=O)N[C@@H](CO)C(=O)N[C@@H](CCCCN)C(=O)N[C@H](C(=O)N[C@@H](CO)C(=O)N1CCC[C@H]1C(=O)N[C@@H](CCC(N)=O)C(=O)NCC(=O)N[C@@H](Cc1ccc(O)cc1)C(N)=O)[C@@H](C)CC)C(C)C)[C@@H](C)O [hADM]
plasma half life [2]: 22 min
